Data reported in patent publication US10940139B2, “Compounds that interact with the Ras superfamily for the treatment of cancers, inflammatory diseases, rasopathies, and fibrotic disease” (Shy Therapeutics LLC, priority 2017, dated 2021).

Columns and labels:
Experiment in all cases: Ras GTP binding domain inhibition assay (labeled GTP)
KRas G12C mutant = KRas G12C mutant (Homo sapiens (Human), UniProt P01116, G12C); settings: 20 μM compound; KRas G12C; read-out: % Inhibition at 20 μM of K-Ras mutant and wild-type protein, KRas G12C
Procedure, shortened: (§1)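 Inhibition of labeled GTP binding is measured on immobilized His-KRas protein in Tris buffer pH 7.5 with 1 mM MgCl2 and 1 mM DTT.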

KRas wild type = KRas wild type (Homo sapiens (Human), UniProt P01116); settings: 20 μM compound; KRas wild type; read-out: % Inhibition at 20 μM of K-Ras mutant and wild-type protein, KRas wild type
Procedure, shortened: as §1

KRas G12D mutant protein = KRas G12D mutant protein (Homo sapiens (Human), UniProt P01116, G12D); settings: 20 μM compound; KRas G12D; read-out: % Inhibition at 20 μM of K-Ras mutant and wild-type protein, KRas G12D
[1] = target: KRas G12D/Q61H double mutant (Homo sapiens (Human), UniProt P01116, G12D/Q61H); settings: 20 μM compound; KRas G12D/Q61H double mutant; read-out: % Inhibition at 20 μM of K-Ras mutant and wild-type protein, KRas G12D Q61H
Procedure, shortened: as §1

[2] = target: KRas G12C/Q61H double mutant (Homo sapiens (Human), UniProt P01116, G12C/Q61H); settings: 20 μM compound; KRas G12C/Q61H double mutant; read-out: % Inhibition at 20 μM of K-Ras mutant and wild-type protein, KRas G12C Q61H
Procedure, shortened: as §1

KRas Q61H mutant = KRas Q61H mutant (Homo sapiens (Human), UniProt P01116, Q61H); settings: 20 μM compound; KRas Q61H; read-out: % Inhibition at 20 μM of K-Ras mutant and wild-type protein, KRas Q61H
Procedure, shortened: as §1

KRas Q61H mutant, sequence (P01116-2 other isoform, or with tags, fused parts or gaps Q61H): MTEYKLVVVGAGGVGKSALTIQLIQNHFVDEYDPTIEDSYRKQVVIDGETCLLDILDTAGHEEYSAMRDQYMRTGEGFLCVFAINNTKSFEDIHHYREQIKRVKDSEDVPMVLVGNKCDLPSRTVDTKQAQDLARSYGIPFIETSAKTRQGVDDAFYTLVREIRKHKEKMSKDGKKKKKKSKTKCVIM
KRas G12C/Q61H double mutant, sequence (P01116-2 other isoform, or with tags, fused parts or gaps G12C/Q61H): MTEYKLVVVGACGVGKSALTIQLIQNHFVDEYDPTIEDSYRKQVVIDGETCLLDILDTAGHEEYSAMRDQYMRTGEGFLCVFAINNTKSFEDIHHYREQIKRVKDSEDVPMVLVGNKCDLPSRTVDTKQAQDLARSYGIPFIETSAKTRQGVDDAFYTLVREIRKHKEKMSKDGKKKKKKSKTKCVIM
KRas wild type, sequence (P01116-2 other isoform, or with tags, fused parts or gaps): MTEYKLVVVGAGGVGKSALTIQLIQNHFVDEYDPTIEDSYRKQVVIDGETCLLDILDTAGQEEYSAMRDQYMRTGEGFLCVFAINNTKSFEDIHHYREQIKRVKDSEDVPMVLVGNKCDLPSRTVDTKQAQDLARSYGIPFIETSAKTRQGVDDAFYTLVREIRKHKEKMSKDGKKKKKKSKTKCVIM
KRas G12C mutant, sequence (P01116-2 other isoform, or with tags, fused parts or gaps G12C): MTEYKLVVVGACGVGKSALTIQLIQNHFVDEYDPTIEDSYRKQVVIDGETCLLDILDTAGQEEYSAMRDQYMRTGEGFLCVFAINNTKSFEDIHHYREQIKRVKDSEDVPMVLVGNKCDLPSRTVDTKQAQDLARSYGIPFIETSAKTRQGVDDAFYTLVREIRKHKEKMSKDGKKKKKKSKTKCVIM
KRas G12D mutant protein, sequence (P01116-2 other isoform, or with tags, fused parts or gaps G12D): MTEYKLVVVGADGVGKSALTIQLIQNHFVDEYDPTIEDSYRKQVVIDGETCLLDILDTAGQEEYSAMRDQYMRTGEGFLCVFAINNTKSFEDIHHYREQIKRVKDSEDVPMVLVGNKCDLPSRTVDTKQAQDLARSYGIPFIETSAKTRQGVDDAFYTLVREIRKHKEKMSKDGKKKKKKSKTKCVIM
KRas G12D/Q61H double mutant, sequence (P01116-2 other isoform, or with tags, fused parts or gaps G12D/Q61H): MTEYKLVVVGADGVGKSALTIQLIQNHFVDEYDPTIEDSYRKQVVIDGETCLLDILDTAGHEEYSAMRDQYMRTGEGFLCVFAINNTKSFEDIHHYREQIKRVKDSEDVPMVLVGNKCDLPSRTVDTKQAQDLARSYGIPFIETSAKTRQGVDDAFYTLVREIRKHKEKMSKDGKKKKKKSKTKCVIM

inhibition at 20 µM (KRas G12C mutant) [%] | inhibition at 20 µM (KRas wild type) [%] | inhibition at 20 µM (KRas G12D mutant protein) [%] | inhibition at 20 µM [1] [%] | inhibition at 20 µM [2] [%] | inhibition at 20 µM (KRas Q61H mutant) [%] | Structure (SMILES)
1 to 25 | 25 to 50 | 25 to 50 | – | – | – | Cc1ccccc1-c1c(C)sc2c(O)nc(-c3nccn3C)nc12
– | – | – | 1 to 25 | 0 | 0 | COc1nc(-c2ccccn2)nc(Oc2cccc(C(F)(F)F)c2)c1OC [drawing 3552]
– | – | – | 0 | 1 to 25 | 1 to 25 | Oc1nc(-c2ccccn2)nc2c(Br)c(-c3ccccc3)sc12 [drawing 3553]
– | – | – | 25 to 50 | 25 to 50 | 51 to 75 | CC(C)(C)c1sc2c(O)nc(-c3ccccn3)nc2c1Br [drawing 3554]
– | – | – | 0 | 1 to 25 | 0 | Cc1ccc(-c2cc3nc(-c4ccccn4)nc(O)c3s2)cc1 [drawing 3555]
– | – | – | 1 to 25 | 25 to 50 | 51 to 75 | Oc1nc(-c2ccccn2)nc2cc(-c3ccccc3Cl)sc12 [drawing 3556]
– | – | – | 1 to 25 | 1 to 25 | 1 to 25 | Oc1nc(-c2ccccn2)nc2cc(-c3ccc(-c4ccccc4)cc3)sc12 [drawing 3559]
– | – | – | 1 to 25 | 1 to 25 | 1 to 25 | Cc1ccc(-c2csc3c(O)nc(-c4ccccn4)nc23)cc1 [drawing 3560]
– | – | – | 1 to 25 | 1 to 25 | 1 to 25 | COc1ccc(-c2cc3nc(-c4ccccn4)nc(O)c3s2)cc1 [drawing 3563]
– | – | – | 25 to 50 | 1 to 25 | 25 to 50 | Oc1nc(-c2ccccn2)nc2cc(-c3cccc(Br)c3)sc12 [drawing 3564]
25 to 50 | 1 to 25 | 51 to 75 | – | – | – | COc1nc(-c2ccccn2)nc(Oc2cccc(C(F)(F)F)c2)c1O [drawing 3565]
25 to 50 | 51 to 75 | 51 to 75 | – | – | – | COCCN(C)c1nc(-c2nccn2C)nc2sc(-c3ccccc3)c(-c3ccccc3)c12 [drawing 3566]
51 to 75 | 51 to 75 | 51 to 75 | – | – | – | CC(C)OCCNc1nc(-c2nccn2C)nc2sc(-c3ccccc3)c(-c3ccccc3)c12 [drawing 3567]
1 to 25 | 25 to 50 | 25 to 50 | – | – | – | Cn1ccnc1-c1nc(NCCOC(F)(F)F)c2c(-c3ccccc3)c(-c3ccccc3)sc2n1 [drawing 3568]
1 to 25 | 1 to 25 | 1 to 25 | – | – | – | CC(O)CNc1nc(-c2nccn2C)nc2sc(-c3ccccc3)c(-c3ccccc3)c12 (stereo not drawn) [drawing 3569]
51 to 75 | 51 to 75 | 51 to 75 | – | – | – | COCCCNc1nc(-c2nccn2C)nc2sc(-c3ccccc3)c(-c3ccccc3)c12 [drawing 3570]
1 to 25 | 25 to 50 | 51 to 75 | – | – | – | COC1CCN(c2nc(-c3nccn3C)nc3sc(-c4ccccc4)c(-c4ccccc4)c23)C1 (stereo not drawn) [drawing 3571]
0 | 25 to 50 | 1 to 25 | – | – | – | CCOCCOc1nc(-c2nccn2C)nc2sc(-c3ccccc3)c(-c3ccccc3)c12 [drawing 3572]
25 to 50 | 51 to 75 | 25 to 50 | – | – | – | CCN(CC)CCOc1nc(-c2nccn2C)nc2sc(-c3ccccc3)c(-c3ccccc3)c12 [drawing 3573]
1 to 25 | 1 to 25 | 0 | – | – | – | COCCNc1nc(-c2ccncn2)nc2sc(-c3ccccc3)c(-c3ccccc3)c12 [drawing 3574]

inhibition at 20 µM (KRas G12C mutant) [%] | inhibition at 20 µM (KRas wild type) [%] | inhibition at 20 µM (KRas G12D mutant protein) [%] | inhibition at 20 µM [1] [%] | inhibition at 20 µM [2] [%] | inhibition at 20 µM (KRas Q61H mutant) [%] | Structure (SMILES)
51 to 75 | 51 to 75 | 51 to 75 | – | – | – | CCOCCNc1nc(-c2nccn2C)nc2sc(-c3ccccc3)c(-c3ccccc3)c12 [drawing 3575]
25 to 50 | 25 to 50 | 1 to 25 | – | – | – | Cn1ccnc1-c1nc(NCCOC2CC2)c2c(-c3ccccc3)c(-c3ccccc3)sc2n1 [drawing 3576]
1 to 25 | 1 to 25 | 1 to 25 | – | – | – | COCC(C)Nc1nc(-c2nccn2C)nc2sc(-c3ccccc3)c(-c3ccccc3)c12 (stereo not drawn) [drawing 3577]
25 to 50 | 0 | 1 to 25 | – | – | – | CC(CO)Nc1nc(-c2nccn2C)nc2sc(-c3ccccc3)c(-c3ccccc3)c12 (stereo not drawn) [drawing 3578]
25 to 50 | 25 to 50 | 51 to 75 | – | – | – | Cn1ccnc1-c1nc(NCCCO)c2c(-c3ccccc3)c(-c3ccccc3)sc2n1 [drawing 3579]
25 to 50 | 1 to 25 | 25 to 50 | – | – | – | COCCNc1nc(-c2nccn2C)nc2sc(-c3ccccc3)c(-c3ccccc3Cl)c12 [drawing 3580]
1 to 25 | 1 to 25 | 1 to 25 | – | – | – | COCCNc1nc(-c2nccn2C)nc2sc(-c3ccccc3Cl)c(-c3ccccc3)c12 [drawing 3581]
51 to 75 | 76 to 100 | 51 to 75 | – | – | – | COCCNc1nc(-c2nccn2C)nc2sc(-c3ccncc3)c(-c3ccccc3)c12 [drawing 3582]
25 to 50 | 51 to 75 | 25 to 50 | – | – | – | COCCNc1nc(-c2cn(C)cn2)nc2sc(-c3ccccc3)c(-c3ccccc3)c12 [drawing 3583]
51 to 75 | 51 to 75 | 51 to 75 | – | – | – | COCCNc1nc(-c2nccn2C)nc2sc(C)c(-c3ccccc3)c12 [drawing 3584]
25 to 50 | 51 to 75 | 25 to 50 | – | – | – | COCCNc1nc(-c2cn(C)cn2)nc2sc(C)c(-c3ccccc3)c12 [drawing 3585]
1 to 25 | 25 to 50 | 25 to 50 | – | – | – | COCCNc1nc(-c2nccn2C)nc2sc(-c3cccc(OC)c3)c(-c3ccccc3)c12 [drawing 3586]
25 to 50 | 51 to 75 | 51 to 75 | – | – | – | CC(C)COc1ccc(-c2c(-c3ccccc3)sc3c(O)nc(-c4nccn4C)nc23)cn1 [drawing 3587]
0 | 1 to 25 | 0 | – | – | – | Cn1ccnc1-c1nc(O)c2sc(-c3ccccc3)c(-c3ccccc3)c2n1 [drawing 3588]
25 to 50 | 25 to 50 | 25 to 50 | – | – | – | COCCNc1nc(-c2nccn2C)nc2sc(-c3ccccc3)c(-c3ccc(OC)cc3)c12 [drawing 3589]
25 to 50 | 51 to 75 | 51 to 75 | – | – | – | COCCNc1nc(-c2nccn2C)nc2sc(C3CCOCC3)c(-c3ccccc3)c12 [drawing 3590]
1 to 25 | 0 | 0 | – | – | – | COCCNc1nc(-c2cccc(N)n2)nc2sc(-c3ccccc3)c(-c3ccccc3)c12 [drawing 3591]
0 | 1 to 25 | 0 | – | – | – | Cn1ccnc1-c1nc(O)c2sc(-c3ccccc3)c(-c3cccc(C(F)(F)F)c3)c2n1 [drawing 3592]
1 to 25 | 1 to 25 | 1 to 25 | – | – | – | COc1ccc(-c2c(-c3ccccc3)sc3c(O)nc(-c4nccn4C)nc23)cn1 [drawing 3593]
